{
  "source": "patent US6589996B2",
  "about": "“Treatment of disorders relating to the serotonergic system” (Orion Corporation, priority 2000, dated 2003)",
  "key": {"[1]": {"conditions": "rat, single oral administration; cited from earlier work"}, "[2]": {"test_system": "anxiety, specifically GAD", "assay": "randomised placebo-controlled double-blind study in GAD: anxiety symptoms (HAM-A, CGI)", "format": "in vivo, human", "conditions": "for CGI severity of illness: percentage of patients not ill or very mildly ill: after 8 weeks", "experimental": "(§1) The efficacy of deramciclane in the treatment of anxiety, specifically GAD, was studied in a randomised placebo-controlled double-blind study. In addition, the dosage-dependency of the effects of deramciclane was evaluated. A total of 208 patients were included in the study. The subjects were randomly assigned to four parallel groups to receive one tablet twice daily (b.i.d) of a placebo, 5 mg (=10 mg/day), 15 mg (=30 mg/day), or 30 mg (=60mg/day) deramciclane. The study started with a one-week placebo run-in period, followed by an eight-week placebo-controlled active treatment and a two-week placebo washout period.\nThe efficacy of deramciclane on anxiety symptoms was studied by the efficacy variable Hamilton Anxiety Scale (HAM-A), analyzing the change in the score and using responder criterion (at least 50% reduction in HAM-A total score). The Clinical Global Impression (GCI) scale was also used for analyzing the efficacy of deramciclane on anxiety symptoms."}, "[3]": {"test_system": "mice", "conditions": "oral doses 48-160 mg/kg; cited from earlier work"}, "[4]": {"test_system": "depressive symptoms", "assay": "randomised placebo-controlled double-blind study in GAD: depressive symptoms (MADRS)", "format": "in vivo, human", "experimental": "as §1\nThe efficacy of deramciclane on depressive symptoms was studied using the Montgomery Asberg Depression Rating Scale (MADRS)."}, "[5]": {"biological_target": "serotonin 5HT2A-receptor (Homo sapiens, UniProt P28223)", "sequence (P28223 whole entry)": "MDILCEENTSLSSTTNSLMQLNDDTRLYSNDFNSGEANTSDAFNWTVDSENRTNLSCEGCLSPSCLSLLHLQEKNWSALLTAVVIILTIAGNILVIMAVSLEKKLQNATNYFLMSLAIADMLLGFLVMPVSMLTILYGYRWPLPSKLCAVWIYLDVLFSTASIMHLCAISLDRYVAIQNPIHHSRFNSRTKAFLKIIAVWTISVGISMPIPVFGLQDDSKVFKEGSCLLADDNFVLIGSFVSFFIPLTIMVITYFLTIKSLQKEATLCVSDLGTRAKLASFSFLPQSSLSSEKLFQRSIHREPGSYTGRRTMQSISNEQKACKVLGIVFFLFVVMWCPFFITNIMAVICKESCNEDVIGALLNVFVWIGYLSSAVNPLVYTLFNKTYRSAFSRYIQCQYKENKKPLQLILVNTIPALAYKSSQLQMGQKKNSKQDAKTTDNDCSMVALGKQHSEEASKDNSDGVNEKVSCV", "conditions": "cited from earlier work"}, "[6]": {"test_system": "rats", "conditions": "oral doses of 25 and 100 mg/kg; cited from earlier work"}, "[7]": {"test_system": "rats", "conditions": "intraperitoneally 1 or 10 mg/kg, 8 times, twice a day; cited from earlier work"}, "[8]": {"biological_target": "serotonin 5-HT2C-receptor (Homo sapiens, UniProt P28335)", "sequence (P28335 33-458)": "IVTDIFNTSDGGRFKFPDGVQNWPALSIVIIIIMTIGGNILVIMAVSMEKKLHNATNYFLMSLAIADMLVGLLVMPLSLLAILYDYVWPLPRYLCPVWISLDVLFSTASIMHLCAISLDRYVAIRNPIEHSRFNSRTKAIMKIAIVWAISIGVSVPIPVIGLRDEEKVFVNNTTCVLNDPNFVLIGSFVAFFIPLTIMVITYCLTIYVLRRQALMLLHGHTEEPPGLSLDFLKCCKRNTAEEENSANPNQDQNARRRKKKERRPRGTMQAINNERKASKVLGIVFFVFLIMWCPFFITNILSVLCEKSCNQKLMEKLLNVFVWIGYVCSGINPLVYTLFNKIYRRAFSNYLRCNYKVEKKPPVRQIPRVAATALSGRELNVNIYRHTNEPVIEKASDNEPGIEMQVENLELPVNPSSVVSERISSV", "conditions": "cited from earlier work"}, "[9]": {"test_system": "rats", "conditions": "single intraperitoneal administration; cited from earlier work"}, "[10]": {"conditions": "human, cited from earlier work"}, "[11]": {"biological_target": "T1, serotonin 5-HT2A-receptors in frontal cortex (Homo sapiens, UniProt P28223)", "T1 construct": "serotonin 5-HT2A-receptors in frontal cortex of healthy male volunteers; from tissue; host or cells: frontal cortex of living healthy male volunteers (in vivo)", "T1 sequence (P28223 whole entry)": "as the sequence (P28223 whole entry) above", "conditions": "human brain, single oral dose; cited from earlier work"}, "[12]": {"test_system": "rats", "conditions": "cited from earlier work"}, "[13]": {"conditions": "rats, 3 mg/kg, cited from earlier work"}, "[14]": {"conditions": "human, cited from earlier work; for Cmin and Cmax range: repeated administration for one week"}, "[15]": {"test_system": "withdrawal symptoms", "assay": "randomised placebo-controlled double-blind study in GAD: Physician's Withdrawal Checklist (PWC)", "format": "in vivo, human", "experimental": "as §1\nAfter stopping the above-described 8-week treatment period, no discontinuation effects were seen (measured by the Physician's Withdrawal Checklist, PWC). This is different and surprising from the experiences with the most other efficacious drugs used for the treatment of anxiety."}, "[16]": {"test_system": "rats", "conditions": "cited from earlier work", "remark": "listed apart in the source"}, "[17]": {"conditions": "human, in vivo", "experimental": "In a comparative pharmacokinetic study of orally administered deramciclane in rats, dogs, rabbits and humans (Klebovich et al Pharm. Pharmacol. Commun., 4:129-136, 1998), it was shown that the plasma concentration curves obtained after the administration of a single 3 mg/kg oral dose of deramciclane to rats (dogs, rabbits) and human show considerable species specific differences. […] Thus a 40-times lower oral dose of deramciclane could be used in man to result in the same maximal plasma concentration as in rat. […] Thus, over 300 times lower oral doses should result in equal exposure in humans than in rats. Basing only the Cmax difference between rat and man, it can be predicted that considerably lower doses should be centrally active in humans than in rat. The minimum oral effective anti-anxiety dose in rats was 1 mg/kg (1-30 mg/kg the full range; see above), i.e. in a 70 kg-man this would mean 70 mg dose. […] This would result in 70 mg/40=1.75 mg (i.e. 0.025 mg/kg) as an effective dose in man."}, "[18]": {"test_system": "mice", "conditions": "single subcutaneous administration, 3 mg/kg; cited from earlier work"}},
  "note": "Like-named read-outs stand apart in the source and are kept apart here.",
  "data": [
    {"smiles": "CN(C)CCO[C@]1(c2ccccc2)C[C@H]2CC[C@]1(C)C2(C)C", "note": "[deramciclane, (1R,2S,4R)-(−)-2-[N,N-(dimethylaminoethoxy)]-2-phenyl-1,7,7-trimethyl-bicyclo [2.2.1]heptane]", "values": [
      {"measurement": "mean AUC 0-∞", "setting": "[1]", "result": 11.9, "unit": "ng·h/mL"},
      {"measurement": "HAM-A score, difference from placebo", "setting": "[2]; 5 mg b.i.d, 8 weeks", "result": "No difference"},
      {"measurement": "CGI severity of illness: percentage of patients not ill or very mildly ill", "setting": "[2]; 5 mg b.i.d", "result": 49, "unit": "%"},
      {"measurement": "responders (at least 50% reduction in HAM-A total score)", "setting": "[2]; 5 mg b.i.d., n=31", "result": 57, "unit": "%"},
      {"measurement": "HAM-A score decrease from baseline", "setting": "[2]; 15 mg b.i.d, 8 weeks, p=0.006 vs placebo", "result": 14.5, "unit": "points"},
      {"measurement": "CGI severity of illness: percentage of patients not ill or very mildly ill", "setting": "[2]; 15 mg b.i.d", "result": 55, "unit": "%"},
      {"measurement": "responders (at least 50% reduction in HAM-A total score)", "setting": "[2]; 15 mg b.i.d., n=39, p=0.020 vs placebo", "result": 76, "unit": "%"},
      {"measurement": "CGI severity of illness: percentage of patients not ill or very mildly ill", "setting": "[2]; 30 mg b.i.d, p=0.030", "result": 61, "unit": "%"},
      {"measurement": "HAM-A score decrease from baseline", "setting": "[2]; 30 mg b.i.d., 8 weeks, not significant vs placebo", "result": 14.5, "unit": "points"},
      {"measurement": "responders (at least 50% reduction in HAM-A total score)", "setting": "[2]; 30 mg b.i.d., n=37", "result": 70, "unit": "%"},
      {"measurement": "effect on tetrabenazine-induced ptosis", "setting": "[3]", "result": "negligible"},
      {"measurement": "effect on MADRS score", "setting": "[4]; 5 mg b.i.d", "result": "ineffective"},
      {"measurement": "MADRS score decrease", "setting": "[4]; 15 mg b.i.d, p=0.028", "result": 7.7, "unit": "points"},
      {"measurement": "MADRS score decrease", "setting": "[4]; 30 mg b.i.d, p=0.016", "result": 8.0, "unit": "points"},
      {"measurement": "antagonism of the receptor", "setting": "[5]", "result": "potent antagonist"},
      {"measurement": "binding affinity", "setting": "[5]; in vitro", "result": "high affinity"},
      {"measurement": "effect in forced swimming test", "setting": "[6]", "result": "clearly ineffective"},
      {"measurement": "effect on helpless behaviour induced by inescapable electric foot shocks", "setting": "[7]", "result": "dose dependently attenuated helpless behaviour"},
      {"measurement": "antagonism of the receptor", "setting": "[8]", "result": "potent antagonist"},
      {"measurement": "binding affinity", "setting": "[8]; in vitro", "result": "high affinity"},
      {"measurement": "effect on social interaction time", "setting": "[9]", "result": "enhanced the social interaction time"},
      {"measurement": "minimum effective dose", "setting": "[9]", "result": 0.7, "unit": "mg/kg"},
      {"measurement": "Cmax", "setting": "[10]; single 3 mg/kg oral dose", "result": 217.5, "unit": "ng/mL"},
      {"measurement": "mean AUC 0-∞", "setting": "[10]; single oral administration", "result": 3737.8, "unit": "ng·h/mL"},
      {"measurement": "plasma concentration at 50% 5HT2A-receptor occupancy", "setting": "[11]", "result": "~21", "unit": "ng/mL"},
      {"measurement": "plasma concentration at 90% 5HT2A-receptor occupancy", "setting": "[11]", "result": "about 70 ng/ml"},
      {"measurement": "minimum oral effective anti-anxiety dose", "setting": "[12]; oral", "result": 1, "unit": "mg/kg"},
      {"measurement": "activity in punished drinking test", "setting": "[12]; single oral administration, 1 mg/kg and 10 mg/kg", "result": "active"},
      {"measurement": "radioactivity in organs including blood and the brain", "setting": "[13]; intravenous administration", "result": "high radioactivity"},
      {"measurement": "radioactivity in organs, especially the brain", "setting": "[13]; oral administration, compared with intravenous", "result": "substantially lower"},
      {"measurement": "Cmin and Cmax range", "setting": "[14]; 20 mg daily", "result": "16 to 33", "unit": "ng/mL"},
      {"measurement": "Cmin and Cmax range", "setting": "[14]; 60 mg daily", "result": "48 to 91", "unit": "ng/mL"},
      {"measurement": "Cmax", "setting": "[14]; single oral 20 mg", "result": "24 ± 9.4", "unit": "ng/mL"},
      {"measurement": "Cmax", "setting": "[14]; single oral 30 mg", "result": "27 ± 6.1", "unit": "ng/mL"},
      {"measurement": "PWC value, Mean (SD)", "setting": "[15]; 5 mg b.i.d., after 2 week wash-out", "result": "9 (8)"},
      {"measurement": "PWC value, Mean (SD)", "setting": "[15]; 5 mg b.i.d., after 8 week treatment", "result": "9 (7)"},
      {"measurement": "PWC value, Mean (SD)", "setting": "[15]; 15 mg b.i.d., after 2 week wash-out", "result": "8 (7)"},
      {"measurement": "PWC value, Mean (SD)", "setting": "[15]; 15 mg b.i.d., after 8 week treatment", "result": "7 (8)"},
      {"measurement": "PWC value, Mean (SD)", "setting": "[15]; 30 mg b.i.d., after 2 week wash-out", "result": "8 (7)"},
      {"measurement": "PWC value, Mean (SD)", "setting": "[15]; 30 mg b.i.d., after 8 week treatment", "result": "8 (8)"},
      {"measurement": "withdrawal symptoms after abrupt discontinuation", "setting": "[15]; after 8-week treatment", "result": "did not cause any withdrawal symptoms"},
      {"measurement": "effect on caerulein-induced decrease in exploratory behavior", "setting": "[16]; intraperitoneal dose of 0.5 mg/kg", "result": "able to attenuate"},
      {"measurement": "effect in elevated plus maze test", "setting": "[16]; rats, single intraperitoneal doses 0.1 mg/kg-5 mg/kg", "result": "totally ineffective"},
      {"measurement": "factor by which oral dose in man is lower for the same maximal plasma concentration as in rat", "setting": "[17]", "result": 40, "unit": "times"},
      {"measurement": "factor by which oral dose is lower for equal exposure in humans than in rats", "setting": "[17]; rat", "result": "over 300 times"},
      {"measurement": "activity in two compartment test", "setting": "[18]", "result": "active"}
    ]}
  ]
}
